Results from publication PMC3404088, “Development of a Small D-Enantiomeric Alzheimer’s Amyloid-β Binding Peptide Ligand for Future In Vivo Imaging Applications” (PLoS ONE, 2012).
Square brackets hold non-standard residues; d marks the D form. Peptide text beside a SMILES is read from it. * marks the point of attachment. 5FAM = O=C1OC2(c3ccc(O)cc3Oc3cc(O)ccc32)c2ccc(C(=O)*)cc21

Assays:
Aβ1–42 monomers = target: T1, Aβ1–42 monomers (Homo sapiens, UniProt P05067); assay: ELISA, compound binding to Aβ1–42 peptide film (predominantly monomers); settings: 10 µg/ml compound; optical density after pNPP incubation; value of one single experiment only
T1 construct: Aβ1–42 peptide film was prepared from lyophilized powder (Bachem); purchased Bachem
Method: (§1) Aβ1–42 peptide film was prepared from lyophilized powder (Bachem). The powder was reconstituted in HFIP to a final concentration of 1 mM, sonicated for 15 min at room temperature (RT), agitated overnight (ON), and aliquoted into non-siliconized microcentrifuge tubes (12 µl corresponding to 55 µg). The HFIP was evaporated under a stream of argon. The resulting peptide film was vacuum dried for 10 min and stored at -80°C. For direct use as peptide film, an aliquot of Aβ1–42 peptide film was reconstituted with 0.54% dimethylsulphoxide (DMSO) in phosphate buffered saline (PBS) to obtain a final concentration of 10 µg/ml and then used for the ELISA as described below. To prepare fibrils, 55 µg aliquot of peptide film was dissolved in 55 µl of 50 mM Tris-HCl, pH 7.4 and incubated at 37°C for five days. Next, the sample was centrifuged (10’000 rpm for 5 min) and the pellet was diluted in 50 mM Tris-HCl, pH 7.4.
(§2) Aβ1–42 peptide preparations were diluted in 0.05 M bicarbonate-carbonate buffer pH 9.6, to the final concentration of 10 µg/ml and coated onto ELISA plates (MaxiSorp, Nunc). After blocking (PBS; 0.05% Tween; 1% BSA), plates were incubated with 2- or 3-fold dilutions of D-compounds (starting concentration: 10 µg/ml) and incubated for 2 h at 37°C. Plates were then washed and incubated for 2 h at 37°C with the detection antibody Rabbit-a-fluorescein isothiocyanate-AP (Sigma; 1∶10’000 dilution) followed by the incubation for 2.5 h at room temperature (RT) with 1 mg/ml of phosphatase substrate (pNPP, Sigma). The absorbance signal was read at 405 nm wavelength using a Tecan plate reader (Tecan Group Lt, Männedorf, Switzerland).
(§3) ELISA plates (MaxiSorp, Nunc) were coated with anti-Aβ antibody 6E10 (Covance) at a concentration of 5 µg/ml. Either monomeric Aβ1–42 peptide film (mainly monomeric) or Aβ1–42 fibrils, which were prepared as described above, were diluted in PBS to the final concentration 10 µg/ml and mixed with 10-fold dilutions of D-peptide compounds in Eppendorf tubes (starting concentration of D-peptide compounds: 10 µg/ml). The tubes were incubated for 2 h at 37°C. Next, samples were distributed onto the ELISA plate and kept for 2 h at 37°C. Plates were washed and incubated for 2 h at 37°C with the detection antibody Rabbit-a-fluorescein isothiocyanate-AP (Sigma; 1∶10′000 dilution) following the incubation overnight (ON) at RT with 1 mg/ml of phosphatase substrate (pNPP, Sigma). The absorbance signal was read at 405 nm wavelength using the Tecan plate reader (Tecan Group Ltd, Männedorf, Switzerland).
(§4) To verify the SPR results, ELISA was employed to assay the interaction of the ACI-80 derivatives ACI-80-Kϕ, ACI-81-Kϕ, ACI-82-Kϕ, ACI-83-Kϕ, ACI-84-Kϕ, ACI-85-Kϕ, ACI-86-Kϕ, ACI-87-Kϕ, [^19F]-ACI-87-Kϕ, ACI-88-Kϕ, [^19F]-ACI-88-Kϕ, ACI-89-Kϕ, [^19F]-ACI-89-Kϕ) with Aβ1–42 fibrils and Aβ peptide film in solution containing mostly monomers and smaller oligomers (Table 4). To avoid any bias by possible conformational influences the ELISA has been carried out in two versions, once with immobilized antibody and once with immobilized Aβ1–42 as described in the methods section. Both assays yielded similar results and confirmed each other. […] Panels A and B in Figure 2 show the results for binding to Aβ1–42 fibrils and panels C and D in Figure 2 show the results for binding to freshly prepared Aβ1–42 peptide film, which contains mostly monomeric Aβ. In Table 4, the performance of the peptides is expressed relative to that of ACI-80-Kϕ.

Aβ1–42 fibrils [1] = target: T2, Aβ1–42 fibrils (Homo sapiens, UniProt P05067); assay: ELISA, compound binding to Aβ1–42 fibrils; settings: 10 µg/ml compound; optical density after pNPP incubation; value of one single experiment only
T2 construct: Aβ1–42 was dissolved in hexafluoroisopropanol (HFIP)
Method: as §1, §2, §3, §4

Aβ1–42 fibrils [2] = target: T2, Aβ1–42 fibrils; assay: SPR single cycle experiments (Biacore T100), heterogeneous ligand model; format: binding; set-up: Rmax1 / Rmax2 / k off2: unit not given here; settings: for Rmax2 / k off1 / k off2 / k on1 / k on2 / Rmax1: PBS pH 7.4, 25°C, 30 µl/min; for Rmax1: global fit of three lowest responding concentrations
Method: Aβ1–42 fibrils were prepared as described above. Thereafter, the sample was centrifuged for 10 min at 16000×g, the supernatant discarded and this procedure repeated for 3 times. Formation of fibrils was confirmed by a standard Thioflavin-T fluorescence assay. Aβ1–42 fibrils were covalently immobilized on a CM5 sensor chip via amine coupling. Prior to immobilization of Aβ1–42 fibrils the sample was centrifuged and fibrils resuspended in 10 mM sodium acetate buffer pH 4.0. Flow cell sensor surfaces were activated with a freshly prepared solution of 0.2 M 1-ethyl–3-(3-dimethylaminopropyl)-carbodiimide (EDC) and 0.05 M N-hydroxysuccinimide (NHS) at a constant flow rate of 10 µl/min for 420 s. Aβ1–42 fibrils (∼ 110 µM monomeric Aβ1–42) were injected for 600 s with a flow rate of 10 µl/min. Deactivation of the surface was performed by injection of 1 M ethanolamine-HCl pH 8.5 at the same flow rate and duration as in the activation step. In the reference cells the deactivation step was performed directly after the activation step. All SPR experiments were performed on a Biacore T100 system with series S CM5 sensor chips at 25°C. The system was run with the Biacore T100 Control Software Version 1.1.1. PBS (10 mM sodium phosphate buffer pH 7.4, 137 mM NaCl, 2.7 mM KCl) was chosen as running buffer (as previously during fibril formation) in order to minimize alterations of fibril organization. All buffers were sterile filtered (0.22 µm). After each docking of a sensor chip the detector was normalized with BIAnormalizing solution (70% glycerol, GE Healthcare) to compensate for slight differences in detector responses of individual sensor chips. For all interaction analyses the Type 1 reagent rack was used. Siliconized sample vials were used with their corresponding rubber caps (Type 2, GE Healthcare) to minimize evaporation effects. Throughout all runs the flow rate was set to 30 µl/min. All interaction studies were performed in single-cycle mode. Here, five different concentrations of analyte were passed through a reference cell and subsequently through flow cells with immobilized ligand within the same binding cycle for 60 seconds, starting with the lowest concentration. Successive injections were performed in the order of increasing concentrations. Each following concentration was a fivefold increase of the previous. The lowest analyte concentration was chosen to be 100 nM and therefore the following were 500, 2500, 12500 and 62500 nM. Biacore data were evaluated using BiaEvaluation 4.1.1 (GE Healthcare) and Biacore T100 Evaluation Software (GE Healthcare). Obtained binding data with compounds were double referenced. This was achieved by collecting the data in dual-channel mode with a reference flow cell connected upstream of the flow cell with immobilized Aβ1–42 fibrils and the subtraction of the obtained binding responses with a blank buffer injection (PBS).

T1 sequence (P05067 672-713 limits assumed): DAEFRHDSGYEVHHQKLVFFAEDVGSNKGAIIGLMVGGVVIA
T2 sequence (P05067 672-713 limits assumed): as above

Row | Compound | binding value, binding Aβ1–42 monomers (Aβ1–42 monomers) | binding value, binding Aβ1–42 fibrils (Aβ1–42 fibrils [1]) | Rmax2 (Aβ1–42 fibrils [2]) | k off1 (Aβ1–42 fibrils [2]) | k off2 (Aβ1–42 fibrils [2]) | k on1 (Aβ1–42 fibrils [2]) | k on2 (Aβ1–42 fibrils [2]) | Rmax1 (Aβ1–42 fibrils [2]) | dissociation constant (lowest K D of the two, words) (Aβ1–42 fibrils [2])
1 | CC[C@@H](C)[C@@H](NC(=O)[C@@H](Cc1c[nH]cn1)NC(=O)[C@@H](CCCNC(=N)N)NC(=O)[C@@H](Cc1ccc(O)cc1)NC(=O)[C@@H](Cc1c[nH]cn1)NC(=O)[C@@H](CO)NC(=O)[C@H](N)CCC(N)=O)C(=O)N[C@H](CO)C(=O)N1CCC[C@@H]1C(=O)N[C@H](C)C(=O)N[C@H](CCC(N)=O)C(=O)N[C@H](CCCCN)C(=O)N[C@H](CCCCNC(=O)c1ccc2c(c1)C(=O)OC21c2ccc(O)cc2Oc2cc(O)ccc21)C(=O)O [ACI-87-Kϕ] (H-[dQ][dS][dH][dY][dR][dH][dI][dS][dP][dA][dQ][dK][dK](5FAM)-OH; N-terminus and C-terminus assumed) | *0.79 | *0.93 | 36.2 | 1.84e-3 | 0.0407 | 206 | 1.57e3 | 43.3 | –
2 | CC[C@@H](C)[C@@H](NC(=O)[C@@H](Cc1c[nH]cn1)NC(=O)[C@@H](CCCNC(=N)N)NC(=O)[C@@H](Cc1ccc(O)cc1)NC(=O)[C@@H](Cc1c[nH]cn1)NC(=O)[C@H](N)CO)C(=O)N[C@H](CO)C(=O)N1CCC[C@@H]1C(=O)N[C@H](C)C(=O)N[C@H](CCC(N)=O)C(=O)N[C@H](CCCCN)C(=O)N[C@H](CCCCNC(=O)c1ccc2c(c1)C(=O)OC21c2ccc(O)cc2Oc2cc(O)ccc21)C(=O)O [ACI-88-Kϕ] (H-[dS][dH][dY][dR][dH][dI][dS][dP][dA][dQ][dK][dK](5FAM)-OH; N-terminus and C-terminus assumed) | *1.29 | *1.78 | 63.3 | 7.22e-3 | 0.0553 | 1.71e4 | 930 | 9.96 | submicromolar range
3 | CC[C@@H](C)[C@@H](NC(=O)[C@@H](Cc1c[nH]cn1)NC(=O)[C@@H](CCCNC(=N)N)NC(=O)[C@@H](Cc1ccc(O)cc1)NC(=O)[C@@H](Cc1c[nH]cn1)NC(=O)[C@@H](CO)NC(=O)[C@H]1CCCN1)C(=O)N[C@H](CO)C(=O)N1CCC[C@@H]1C(=O)N[C@H](C)C(=O)N[C@H](CCC(N)=O)C(=O)N[C@H](CCCCN)C(=O)N[C@H](CCCCNC(=O)c1ccc2c(c1)C(=O)OC21c2ccc(O)cc2Oc2cc(O)ccc21)C(=O)O [ACI-89-Kϕ] (H-[dP][dS][dH][dY][dR][dH][dI][dS][dP][dA][dQ][dK][dK](5FAM)-OH; N-terminus and C-terminus assumed) | *1.06 | *1.49 | 19.4 | 0.162 | 0.0118 | 2.03e4 | 3.34e3 | 21.8 | –
